Experimental data reported in patent US20260166039A1 (SCHRÖDINGER, INC., priority 2022, published 2026).

Target: T1, Wee1 kinase domain (Homo sapiens, UniProt P30291)
T1 construct: Wee1 kinase domain was purchased from Carna (catalog #05-177); purchased Carna 05-177
Assay: Wee1 Kinase Biochemical Assay (ADP-Glo)
Details: 1 nM Wee1 enzyme, 15 uM ATP, 4 hours at 25° C
How it was run: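 Compounds tested against 1 nM Wee1 kinase domain in Tris buffer containing 20 mM MgCl2, BSA and 2 mM DTT, with 15 uM ATP and poly(Lys,Tyr) substrate for 4 h at 25 °C. Luminescent ADP detection gave percent inhibition, normalized to DMSO and saturating inhibitor.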

T1 sequence (P30291 299-569 limits assumed): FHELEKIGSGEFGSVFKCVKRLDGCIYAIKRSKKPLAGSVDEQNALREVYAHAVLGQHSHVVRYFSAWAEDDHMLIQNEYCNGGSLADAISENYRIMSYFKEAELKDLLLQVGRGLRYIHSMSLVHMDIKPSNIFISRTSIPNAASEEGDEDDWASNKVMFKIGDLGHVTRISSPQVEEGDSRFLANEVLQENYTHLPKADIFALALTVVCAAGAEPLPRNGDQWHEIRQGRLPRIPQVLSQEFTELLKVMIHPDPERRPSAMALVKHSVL

| IC50 | Compound |
| --- | --- |
| < 10 nM | CN(C)[C@H]1CCN(c2ccc(Nc3ncc4c(n3)N(c3ccccn3)[C@@H]3CC(C)(C)OC[C@]43C)cc2)C1 [Example 820, (4bR,8aR)-N-(4-((S)-3-(dimethylamino)pyrrolidin-1-yl)phenyl)-4b,7,7-trimethyl-9-(pyridin-2-yl)-4b,5,7,8,8a,9-hexahydropyrano[3′,4′:4,5]pyrrolo[2,3-d]pyrimidin-2-amine] |
| < 10 nM | CC1(C)C[C@H]2N(c3cccc(N=S(C)(C)=O)n3)c3nc(Nc4cncnc4)ncc3[C@@]2(C)CO1 (single isomer, unassigned) [Example 817] |
| < 10 nM | CN1CCCC12CCN(c1ccc(Nc3ncc4c(n3)N(c3ccccn3)[C@@H]3CC(C)(C)OC[C@]43C)cc1)CC2 (single isomer, unassigned) [Example 823] |

Same assay, conditions: Wee1 kinase domain, 15 uM ATP, ADP-Glo

| IC50 | Compound |
| --- | --- |
| 100 to 1000 nM | CN1CC(c2ccc(Nc3ncc4c(n3)N(c3cccc(N=S(C)(C)=O)n3)[C@H]3CC(C)(C)OC[C@@]43C)cc2Cl)C1 (single isomer, unassigned) [Example 182] |
| < 10 nM | C[C@H]1COC(=O)N1c1cccc(N2c3nc(Nc4ccc([C@H]5CCN(C)C5)cc4)ncc3[C@]3(C)COC(C)(C)C[C@H]23)n1 (single isomer, unassigned) [Example 307] |
| 10 to 100 nM | Cc1cc(Nc2ncc3c(n2)N(c2cccc(N4C(=O)OC[C@@H]4C)n2)[C@H]2CC(C)(C)OC[C@@]32C)ccc1O[C@@H]1CCN(C)C1 (single isomer, unassigned) [Example 346] |
| < 10 nM | CC1(C)C[C@H]2N(c3cccc(N=S(C)(C)=O)n3)c3nc(Nc4ccc5ncnn5c4)ncc3[C@@]2(C)CO1 (single isomer, unassigned) [Example 384] |
| 100 to 1000 nM | CNCc1cccc(N2c3nc(Nc4ccc([C@H]5CCC(=O)N5C)nc4)ncc3[C@]3(C)COC(C)(C)C[C@H]23)n1 (single isomer, unassigned) [Example 97] |
| 100 to 1000 nM | CN1CCC(c2ccc(Nc3ncc4c(n3)N(c3cccc(N=S(C)(C)=O)n3)[C@H]3CC(C)(C)OC[C@@]43C)cn2)CC1 (single isomer, unassigned) [Example 139] |
| 10 to 100 nM | CC1(C)C[C@@H]2N(c3cccc(N=S(C)(C)=O)n3)c3nc(Nc4ccc(C5CNC5)cc4)ncc3[C@]2(C)CO1 (single isomer, unassigned) [Example 164] |
| < 10 nM | CC1(C)C[C@H]2N(c3cccc(N=S(C)(C)=O)n3)c3nc(Nc4ccc5cnnn5c4)ncc3[C@@]2(C)CO1 (single isomer, unassigned) [Example 362] |
| 100 to 1000 nM | C[C@H]1COC(=O)N1c1cccc(N2c3nc(Nc4ccc(OC5CCN(C)CC5)nc4)ncc3[C@]3(C)COC(C)(C)C[C@H]23)n1 (single isomer, unassigned) [Example 334] |
| < 10 nM | CNCc1cccc(N2c3nc(Nc4ccc([C@@H]5CCCO5)cc4)ncc3[C@@]3(C)COC(C)(C)C[C@@H]23)n1 (single isomer, unassigned) [Example 59] |
| 100 to 1000 nM | C[C@H]1COC(=O)N1c1cccc(N2c3nc(Nc4ccc(C5(C)COC5)cc4)ncc3[C@]3(C)COC(C)(C)C[C@H]23)n1 (single isomer, unassigned) [Example 302] |
| 10 to 100 nM | CC1(C)C[C@H]2N(c3cccc(N=S(C)(C)=O)n3)c3nc(Nc4ccc([C@@]5(C)CCNC5)cc4)ncc3[C@@]2(C)CO1 (single isomer, unassigned) [Example 174] |
| < 10 nM | C[C@H]1COC(=O)N1c1cccc(N2c3nc(Nc4ccc(N5C[C@H]6C[C@@H]5CN6C)c(F)c4)ncc3[C@]3(C)COC(C)(C)C[C@H]23)n1 (single isomer, unassigned) [Example 290] |
| 100 to 1000 nM | C[C@H]1COC(=O)N1c1cccc(N2c3nc(Nc4cn(C5CCN(C)CC5)nn4)ncc3[C@]3(C)COC(C)(C)C[C@H]23)n1 (single isomer, unassigned) [Example 252] |
| 100 to 1000 nM | CNCc1cccc(N2c3nc(Nc4ccc(C5CCN(C)CC5)c(C)c4)ncc3[C@]3(C)COC(C)(C)C[C@H]23)n1 (single isomer, unassigned) [Example 71] |
| 10 to 100 nM | CNCc1cccc(N2c3nc(Nc4ccc(N5CCOCC5)cc4)ncc3[C@]3(C)COC(C)(C)C[C@H]23)n1 (single isomer, unassigned) [Example 6] |
| 100 to 1000 nM | CN1CCC(n2ccc(Nc3ncc4c(n3)N(c3cccc(N=S(C)(C)=O)n3)C3CC(C)(C)OCC43C)cc2=O)CC1 (single isomer, unassigned) [Example 151] |
| 10 to 100 nM | Cc1cc(Nc2ncc3c(n2)N(c2cccc(C(C)(C)O)n2)[C@H]2CC(C)(C)OC[C@@]32C)ccc1N1CCN(C)CC1 (single isomer, unassigned) [Example 10] |

Same assay, conditions: class symbols; 1 nM Wee1 enzyme, 15 uM ATP, 4 hours at 25° C.

| IC50 | Compound |
| --- | --- |
| 10 to 100 nM | CC1(C)C[C@H]2N(c3cccc(N=S(C)(C)=O)n3)c3nc(NC(=O)C4(F)CC4)ncc3[C@@]2(C)CO1 (single isomer, unassigned) [Example 410] |
| 100 to 1000 nM | CC1(C)C[C@@H]2N(c3cccc(N4CCOC4=O)n3)c3nc(Nc4ccc(O[C@H]5CCNC5)cc4)ncc3[C@]2(C)CO1 [Example 612, 3-(6-((4bS,8aS)-4b,7,7-trimethyl-2-((4-(((S)-pyrrolidin-3-yl)oxy)phenyl)amino)-4b,7,8,8a-tetrahydropyrano[3′,4′:4,5]pyrrolo[2,3-d]pyrimidin-9(5H)-yl)pyridin-2-yl)oxazolidin-2-one] |
| 100 to 1000 nM | CN1C[C@@H]2C[C@H]1CN2c1ccc(Nc2ncc3c(n2)N(c2cccc(N4CCOC4=O)n2)[C@H]2CC(C)(C)OC[C@@]32C)cc1 (single isomer, unassigned) [Example 594] |
| 100 to 1000 nM | CN1[C@@H]2C[C@H]1CN(c1ccc(Nc3ncc4c(n3)N(c3cccc(N5CCCC5=O)n3)[C@H]3CC(C)(C)OC[C@@]43C)cc1)C2 [Example 704, 1-(6-((4bS,8aS)-4b,7,7-trimethyl-2-((4-((1R,5S)-6-methyl-3,6-diazabicyclo[3.1.1]heptan-3-yl)phenyl)amino)-4b,7,8,8a-tetrahydropyrano[3′,4′:4,5]pyrrolo[2,3-d]pyrimidin-9(5H)-yl)pyridin-2-yl)pyrrolidin-2-one] |
| 10 to 100 nM | CN1CC[C@H]2CN(c3ccc(Nc4ncc5c(n4)N(c4cccc(N6CCOC6=O)n4)[C@H]4CC(C)(C)OC[C@@]54C)cc3)C[C@H]21 [Example 685, 3-(6-((4bS,8aS)-4b,7,7-trimethyl-2-((4-((3aS,6aS)-1-methylhexahydropyrrolo[3,4-b]pyrrol-5(1H)-yl)phenyl)amino)-4b,7,8,8a-tetrahydropyrano[3′,4′:4,5]pyrrolo[2,3-d]pyrimidin-9(5H)-yl)pyridin-2-yl)oxazolidin-2-one] |
| < 10 nM | CN1CC[C@@H](n2ccc(Nc3ncc4c(n3)N(c3cccc(N=S(C)(C)=O)n3)[C@@H]3CC(C)(C)OC[C@]43C)cc2=O)C1 [Example 804, 4-(((4bR,8aR)-9-(6-((dimethyl(oxo)-16-sulfaneylidene)amino)pyridin-2-yl)-4b,7,7-trimethyl-4b,5,7,8,8a,9-hexahydropyrano[3′,4′:4,5]pyrrolo[2,3-d]pyrimidin-2-yl)amino)-1-((R)-1-methylpyrrolidin-3-yl)pyridin-2(1H)-one] |
| 10 to 100 nM | CN1C[C@H]2C[C@@H]1CN2c1ccc(Nc2ncc3c(n2)N(c2cccc(C4(O)CC4)n2)[C@H]2CC(C)(C)OC[C@@]32C)cc1 [Example 647, 1-(6-((4bS,8aS)-4b,7,7-trimethyl-2-((4-((1R,4R)-5-methyl-2,5-diazabicyclo[2.2.1]heptan-2-yl)phenyl)amino)-4b,7,8,8a-tetrahydropyrano[3′,4′:4,5]pyrrolo[2,3-d]pyrimidin-9(5H)-yl)pyridin-2-yl)cyclopropan-1-ol] |
| 10 to 100 nM | CNCc1cccc(N2c3nc(NC(=O)[C@H]4C[C@@H]4c4cnn(C)c4)ncc3[C@@]3(C)COC(C)(C)C[C@@H]23)n1 [Example 763, (1S,2S)-2-(1-methyl-1H-pyrazol-4-yl)-N-((4bR,8aR)-4b,7,7-trimethyl-9-(6-((methylamino)methyl)pyridin-2-yl)-4b,5,7,8,8a,9-hexahydropyrano[3′,4′:4,5]pyrrolo[2,3-d]pyrimidin-2-yl)cyclopropane-1-carboxamide] |
| 100 to 1000 nM | CNCc1cccc(N2c3nc(Nc4ccc([C@H]5CCNC5)cc4)ncc3[C@]3(C)COC(C)(C)C[C@H]23)n1 (single isomer, unassigned) [Example 451] |
| 100 to 1000 nM | C[C@H]1CN(c2cccc(N3c4nc(Nc5ccc(N6CCN(C)CC6)cc5)ncc4[C@]4(C)COC(C)(C)C[C@H]34)n2)C(=O)O1 (single isomer, unassigned) [Example 598] |
| 100 to 1000 nM | CN1CC2CC1CN2c1ccc(Nc2ncc3c(n2)N(c2cccc(N=S(C)(C)=O)c2)C2CC(C)(C)OCC32C)cc1 (single isomer, unassigned) [Example 711] |
| 100 to 1000 nM | CN1CCC(n2cc(Nc3ncc4c(n3)N(c3cccc(N=S(C)(C)=O)c3)[C@H]3CC(C)(C)OC[C@@]43C)cn2)CC1 [Example 715, dimethyl((3-((4bS,8aS)-4b,7,7-trimethyl-2-((1-(1-methylpiperidin-4-yl)-1H-pyrazol-4-yl)amino)-4b,7,8,8a-tetrahydropyrano[3′,4′:4,5]pyrrolo[2,3-d]pyrimidin-9(5H)-yl)phenyl)imino)-16-sulfanone] |
| 10 to 100 nM | CN1CCN(c2cccc(N3c4nc(Nc5ccc(N6CCOCC6)cc5)ncc4[C@]4(C)COC(C)(C)C[C@H]34)n2)CC1 (single isomer, unassigned) [Example 536] |
| ≥ 1000 nM | CN(C)Cc1cccc(N2c3nc(Nc4ccc(C(C)(C)C(=O)O)cc4)ncc3[C@]3(C)COC(C)(C)C[C@H]23)n1 [Example 610, 2-(4-(((4bS,8aS)-9-(6-((dimethylamino)methyl)pyridin-2-yl)-4b,7,7-trimethyl-4b,5,7,8,8a,9-hexahydropyrano[3′,4′:4,5]pyrrolo[2,3-d]pyrimidin-2-yl)amino)phenyl)-2-methylpropanoic acid] |
